US20110263651A1, “NOVEL PIPERIDINE-BUTYRAMIDE DERIVATIVES AND THEIR USE AS MONOAMINE NEUROT[…]-UPTAKE INHIBITORS” (N[…]/S, priority 2008, published 2011)
pIC50: −log10 of the molar value. Structures can show the parent of a compound that is named as a salt.

What was measured:
Assay type in all cases: biochemical
[1] = tested on: dopamine (DA) reuptake in synaptosomes; assay: Inhibition of DA reuptake in synaptosomes; settings: 3H-DA, read-out: DA-uptake IC50
Experimental: (§1) Compounds were tested for their ability to inhibit the reuptake of the monoamine neurotransmitters dopamine (DA) noradrenaline (NA) and serotonine (5-HT) in synaptosomes as described in WO 97/16451 (NeuroSearch NS).
(§2) The test values are given as IC50 (the concentration (μM) of the test substance which inhibits the specific binding of ^3H-DA, ^3H-NA, or ^3H-5-HT by 50%).

[2] = tested on: serotonine (5-HT) reuptake in synaptosomes; assay: Inhibition of 5-HT reuptake in synaptosomes; settings: 3H-5-HT, read-out: 5-HT-uptake IC50
Experimental: as §1, §2

[3] = tested on: noradrenaline (NA) reuptake in synaptosomes; assay: Inhibition of NA reuptake in synaptosomes; settings: 3H-NA, read-out: NA-uptake IC50
Experimental: as §1, §2

Structure (SMILES) | pIC50 [1] | pIC50 [2] | pIC50 [3]
CCN(C(=O)CCCC1CCN(C)CC1)c1ccc(Cl)c(Cl)c1 [Compound 4.1, N-(3,4-Dichloro-phenyl)-N-ethyl-4-(1-methyl-piperidin-4-yl)-butyramide fumaric acid salt] | 8.16 | 6.10 | 7.92
CCN(C(=O)CCCC1CCNCC1)c1ccc(Cl)c(Cl)c1 [Compound 3.1, N-(3,4-Dichloro-phenyl)-N-ethyl-4-piperidin-4-yl-butyramide fumaric acid salt] | 7.92 | 6.24 | 7.52
